Results on 2 molecules are retold here after patent publication US20090081197A1 (Palatin Technologies, Inc., priority 2007, published 2009).

Non-standard residues stand in square brackets, D forms with d. Residues, ends and D or L forms follow the SMILES beside them. *: point of attachment. dPhe(4-Cl) = N[C@H](Cc1ccc(Cl)cc1)C(=O)O; Ahp = NCCCCCCC(=O)O; Bn = c1ccc(C*)cc1

In test [1] the target is T1, MC4-R (Homo sapiens, UniProt P32245). Briefly: Competitive inhibition assay using [I^125]-NDP-α-MSH, hMC4-R membranes. It is filed as binding. Further details: host or cells: TREx-293 (HEK-293 stably expressing Tet repressor). Conditions: 1 μM test compound; read-out: Inhibition at 1 μM (NDP-α-MSH) In Normal System, MC4-R. In outline:
(§1)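 Tracer was 0.4 nM for MC3-R and MC5-R, 0.2 nM for MC4-R and 0.1 nM for MC1-R. Bound radioactivity was gamma-counted after filtration; values are triplicate means, with results below 0% reported as 0%.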

Test [2] deals with T1, MC4-R. Briefly: Assay for neutral antagonist, Schild analysis (pA2) against NDP-α-MSH. The format is cell-based. Further details: expressed in transfected cells; host or cells: HEK-293. The note with it: Schild analysis vs NDP-α-MSH; read-out: pA2 value as antagonist at MC4-R in a normal system (converted). The procedure: Assay for Neutral Antagonist. […] These studies were carried out in HEK-293 cells expressing the MC4-R receptor. Cells were incubated with the compounds in the presence of the agonist NDP-α-MSH and the extent of antagonism was measured by the decrease in the level of intracellular cAMP. Screening the compounds for antagonists was done at a single concentration of NDP-α-MSH (1.0 nM) over a compound concentration range of 0.5-5000 nM.
Experimental details were similar to the analysis for agonistic activity described above. Briefly, cells were pre-incubated for 30 minutes with the test compounds at concentrations between 0.5 nM and 5000 nM. The cells were then stimulated with NDP-α-MSH at a concentration of 1 nM for 1 hour. For Schild analysis, the interactions were studied using at least 3 concentrations of the compounds, separated by a log unit, over a full range of the agonist (0.005-5000 nM). cAMP levels was measured in the cell lysates after appropriate dilution. Nonlinear regression analysis with Prism Graph-Pad software was used for Schild analysis and to obtain EC50 values. pA2 values were derived from the Schild plot of the data.

Test [3] concerns the target MC3-R (Homo sapiens, UniProt P41968). The test is described as follows: Competitive inhibition assay using [I^125]-NDP-α-MSH, hMC3-R membranes. The note with it: 1 μM test compound; read-out: Inhibition at 1 μM (NDP-α-MSH) In Normal System, MC3-R. It is filed as binding. Further details: expressed in transfected cells. In outline: as §1
Test [4] is described as follows: IP (and IN) food intake, mice. It is filed as in vivo. The note with it: mouse, IP, 10 mg/kg, 4 hours. The method in brief:
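Male Sprague-Dawley rats dosed IV (0.5-3, up to 10 mg/kg) or IP (0.5-10, up to 50 mg/kg); male C57BL/6 mice dosed IP. Change in food intake and body weight over 24 h post-dose versus 1-week vehicle baseline, with 48 and 72 h reversal checks.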

T1 sequence (P32245 whole entry): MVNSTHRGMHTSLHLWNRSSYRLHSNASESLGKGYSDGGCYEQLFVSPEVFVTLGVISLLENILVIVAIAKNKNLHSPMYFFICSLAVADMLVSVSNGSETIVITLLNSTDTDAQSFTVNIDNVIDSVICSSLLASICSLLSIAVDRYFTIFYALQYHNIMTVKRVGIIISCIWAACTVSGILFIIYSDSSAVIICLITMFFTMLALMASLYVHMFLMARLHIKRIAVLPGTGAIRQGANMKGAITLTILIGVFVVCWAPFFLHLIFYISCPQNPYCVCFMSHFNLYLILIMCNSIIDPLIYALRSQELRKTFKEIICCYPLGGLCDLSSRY
Chain of MC3-R (P41968 whole entry): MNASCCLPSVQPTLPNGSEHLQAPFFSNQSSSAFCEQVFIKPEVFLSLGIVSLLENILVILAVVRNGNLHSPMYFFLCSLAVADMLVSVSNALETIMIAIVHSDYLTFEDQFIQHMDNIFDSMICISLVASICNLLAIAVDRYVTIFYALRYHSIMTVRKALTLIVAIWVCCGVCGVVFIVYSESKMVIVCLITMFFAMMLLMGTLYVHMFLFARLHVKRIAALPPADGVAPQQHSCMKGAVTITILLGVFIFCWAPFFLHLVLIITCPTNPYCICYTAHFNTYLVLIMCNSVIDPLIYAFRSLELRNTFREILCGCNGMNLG

A word on the inhibition: it is the percentage by which the read-out fell short of the control. In the case of `N=C(N)NCCC[C@H](NC(=O)[C@@H](Cc1ccc(Cl)cc1)NC(=O)[C@H](COCc1ccccc1)NC(=O)CCCCCCN)C(=O)N[C@@H](Cc1c[nH]c2ccccc12)C(=O)N[C@@H](CC(=O)O)C(N)=O` [Example 13, NH2—(CH2)6—C(═O)-Ser(Bzl)-D-Phe(4-Cl)-Arg-Trp-Asp-NH2] (H-[Ahp]S(Bn)[dPhe(4-Cl)]RWD-NH2), the inhibition at 1 µM in test [1] was 98%; in test [3], 73%. Also, the Kb in test [2] is 50.1 nM.
As to `N=C(N)NCCC[C@H]1CN(CCc2ccc3ccccc3c2)CCN1C(=O)[C@H](N)Cc1ccc(Cl)cc1Cl` [Example 17, N-{3-[(S)-1-[(R)-2-Amino-3-(2,4-dichloro-phenyl)-propionyl]-4-(2-naphthalen-2-yl-ethyl)-piperazin-2-yl]-propyl}-guanidine], the inhibition at 1 µM in test [1] came to 99%; in test [3] it was 87%. The “maximal decrease in food intake” value in test [4] was determined as 86%.
